# Test results taken from patent US8815860B2, “Methods for preventing oxidative stress injury of a tissue by a Folate-TEMPOL conjugate” (Emory University, priority 2009, dated 2014).
# Key:
# [1] = test system: human proximal tubule (HK-2) cells; assay: Superoxide concentration in LPS-treated cultured HK-2 cells measured by DHE-HPLC; type: cell-based; settings: LPS treated HK-2 cells, normalized to protein concentration, n=3 (FIG. 1)
# Method: Superoxide concentration was normalized to protein concentration. Data represent mean and SEM.
# Typically, cultured human proximal tubule (HK-2) cells were treated with LPS to induce superoxide free radical formation. The level of superoxide is indicated by the formation of 2-hydroxyethidium as described, for example by Zielonka et al., (2008) Nat. Protocols 3: 8-21, incorporated herein by reference in its entirety.
# [2] = Tissue concentration quantified by ESR in mice after 48 hour intravenous infusion; type: in vivo; settings: kidney, ESR (FIG. 5F)
# Source text: (§1) Data represent mean and SEM.
# [3] = test system: human proximal tubule (HK-2) cells; assay: Uptake into HK-2 cells quantified by electron spin resonance (ESR); type: cell-based; settings: after incubation with HK-2 cells, ESR (FIG. 5D, 5E)
# [4] = test system: C57bl/6J mice, bilateral renal ischemia-reperfusion; assay: 30 minute bilateral renal ischemia-reperfusion in mice; type: in vivo; settings: for urinary albumin excretion: 24 hour urine, collected 48 hours following 30 minute bilateral renal ischemia-reperfusion (FIG. 2); for plasma creatinine levels: 48 hours following 30 minute bilateral renal ischemia-reperfusion (FIG. 3); for plasma blood urea nitrogen (BUN): 48 hours following 30 minutes bilateral renal ischemia-reperfusion (FIG. 4); for kidney superoxide (hydrocyanine-3 fluorescence, DHE-HPLC, nitrotyrosine staining): mouse kidney after 30 minutes renal ischemia (FIG. 6)
# Method: Samples were collected 48 hours following 30 minute bilateral renal ischemia-reperfusion. Data represent mean and SEM.
# as §1
# BUN was measured 48 hours following 30 minutes bilateral renal ischemia-reperfusion. Data represent mean and SEM.
# The effects of the Folate-TEMPOL conjugate of the present disclosure on renal ischemic-reperfusion injury prevention were observed by intravenously administering TEMPOL or Folate-TEMPOL. The renal artery was then clamped for about 30 mins, followed by 48 hours of reperfusion. Parameters measured as indicators of renal tubule injury included creatinine, BUN, and albumin levels both before and after ischemia. Also measured were the TEMPOL and Folate-TEMPOL concentrations in the plasma and the kidney.
# [5] = listed as Folate-TEMPOL conjugate
SMILES,superoxide concentration in cultured HK-2 cells [1],tissue tempol and tempol-folate concentration [2],HK-2 cell concentration of tempol and tempol-folate [3],HK-2 cell concentration of tempol and tempol-folate ([3]; listed as Folate-TEMPOL),urinary albumin excretion [4],"urinary albumin excretion [4, 5]",plasma creatinine levels [4],"plasma creatinine levels [4, 5]",plasma blood urea nitrogen (BUN) [4],"plasma blood urea nitrogen (BUN) [4, 5]","renal structure, hematoxylin and eosin (H&E) staining of kidney sections ([4]; kidney sections harvested 48 hours post-ischemia (FIG. 7))","kidney superoxide (hydrocyanine-3 fluorescence, DHE-HPLC, nitrotyrosine staining) [4]","kidney superoxide (hydrocyanine-3 fluorescence, DHE-HPLC, nitrotyrosine staining) [4, 5]",superoxide concentration in cultured HK-2 cells ([1]; listed as Folate-TEMPOL)
"CC1(C)CC(O)CC(C)(C)N1[O] [Tempol, 4-hydroxy-2,2,6,6-tetramethylpiperidine 1-oxyl]",effectively scavenged superoxide production,–,–,–,–,–,–,–,–,–,–,–,–,–
CC1(C)CC(NC(=O)CCC(NC(=O)c2ccc(NCc3cnc4nc(N)nc(O)c4n3)cc2)C(=O)O)CC(C)(C)N1[O] (stereo not drawn) [tempol-folate],effectively scavenged superoxide production,becomes more concentrated in cultured proximal tubule cells and in vivo in kidneys of mice compared with tempol,becomes more concentrated in cultured proximal tubule cells,accumulates in cultured proximal tubule cells to a greater extent than un-conjugated Tempol,prevents kidney injury more effectively than free tempol,the reduction was greater than if TEMPOL alone was used,preserves glomerular filtration rate from ischemia-reperfusion more effectively than unconjugated tempol,the reduction was greater than if TEMPOL alone was used,proximal tubule function is protected from ischemic injury by tempol-folate compared with free tempol,the reduction was greater than if TEMPOL alone was used,renal structure is protected from renal ischemia-reperfusion injury by tempol-folate treatment more efficiently than by ternpol treatment,more effective at scavenging superoxide in the kidney,significantly reduced,inhibits superoxide as efficiently as TEMPOL alone
